The values that follow come from paper PMC8482776 (ACS Omega, 2021).

Data set [1] concerns C. albicans (ATCC 10231). The data set can be described thus: Microdilution MIC90, strain A. It counts as cell-based. Particulars: for MIC90: yeast, 24 h at 37 °C, triplicate. (Dilution methods test growth across graded concentrations, often in twofold steps.)
The subject of data set [2] is C. albicans (ATCC 10231). The data set can be described thus: Membrane permeabilization assay. It counts as cell-based. The note with it: 8b, 8c at 1 × MIC, 2 × MIC, 4 × MIC (0.5, 1, 2 μg/mL); AMB 1 μg/mL; 3 h at 28 °C.
The test system of data set [3] is Asp. flavus (ATCC 204304). As to the kind of experiment: Microdilution MIC90, strain G. It counts as cell-based, Aspergillus flavus. The note with it: filamentous fungi, 48 h at 37 °C, triplicate.
The subject of a further data set is C. krusei (ATCC 6258). As to the kind of experiment: Microdilution MIC90, strain B. It counts as cell-based. Particulars: for MIC90: yeast, 24 h at 37 °C, triplicate.
Data set [4] relates to C. tropicalis (PTCC 5028). As to the kind of experiment: Microdilution MIC90, strain E. It counts as cell-based. The note with it: 24 h.
Data set [5] relates to Asp. nidulans (PTCC 5014). As to the kind of experiment: Microdilution MIC90, strain F. It is filed as cell-based, Aspergillus nidulans. Particulars: filamentous fungi, 48 h at 37 °C, triplicate.
The subject of another data set is T. rubrum (PTCC 5143). The data set can be described thus: Microdilution MIC90, strain K. It counts as cell-based, Trichophyton rubrum. Particulars: filamentous fungi, 48 h at 37 °C, triplicate.
Data set [6] deals with T. schoenleinii (PTCC 5221). As to the kind of experiment: Microdilution MIC90, strain N. The note with it: Trichophyton schoenleinii, PTCC5221, 48 h. It counts as cell-based.
The next data set relates to Asp. niger (PTCC 5154). The data set can be described thus: Microdilution MIC90, strain I. It is filed as cell-based, Aspergillus niger. The note with it: Aspergillus niger, PTCC5154, 48 h, filamentous fungi, 48 h at 37 °C, triplicate.
Data set [7] relates to C. parapsilosis (ATCC 22019). As to the kind of experiment: Microdilution MIC90, strain D. It is filed as cell-based. Particulars: 24 h.
In data set [8] the test system is T. mentagrophytes (PTCC 5054). As to the kind of experiment: Microdilution MIC90, strain M. It is filed as cell-based. Particulars: Trichophyton mentagrophytes, PTCC5054, 48 h.
The next data set concerns Asp. terreus (PTCC 5023). The data set can be described thus: Microdilution MIC90, strain J. It counts as cell-based, Aspergillus terreus. The note with it: Aspergillus terreus, PTCC5023, 48 h, filamentous fungi, 48 h at 37 °C, triplicate.
The subject of data set [9] is Asp. fumigatus (PTCC 5009). As to the kind of experiment: Microdilution MIC90, strain H. It counts as cell-based. Particulars: Aspergillus fumigatus, PTCC5009, 48 h, filamentous fungi, 48 h at 37 °C, triplicate.
Data set [10] relates to Microsporum gypseum (PTCC 5070). As to the kind of experiment: Microdilution MIC90, strain L. It counts as cell-based. The note with it: filamentous fungi, 48 h at 37 °C, triplicate.
The subject of the next data set is M. canis (PTCC 5069). As to the kind of experiment: Microdilution MIC90, strain O. It is filed as cell-based. Particulars: Microsporum canis, PTCC5069, 48 h.
Another data set relates to C. glabrata (ATCC 90030). The data set can be described thus: Microdilution MIC90, strain C. It is filed as cell-based. The note with it: yeast, 24 h at 37 °C, triplicate.
Data set [11] relates to C. albicans (ATCC 10231). As to the kind of experiment: Murine model of systemic candidiasis. It counts as in vivo. The note with it: neutropenic mice (n = 5), 15 mg/kg oral gavage, left kidney tissue.
Data set [12] relates to human red blood cells (hRBCs). The data set can be described thus: Hemolysis assay. It counts as cell-based. The note with it: positive control, 2 h at 37 °C.
Where [13] appears, read: Aspergillus flavus, ATCC204304, 48 h.
Setting [14] is: Aspergillus nidulans, PTCC5014, 48 h.
[15] abbreviates: Trichophyton rubrum, PTCC5143, 48 h.

≈ marks a conversion by molar mass, not a printed value. Where “and” joins values, the source holds several entries; their conditions need not be identical. Equal entries are not always repeated.

The term MIC denotes the least concentration at which growth counts as inhibited. High values mean weaker potency, low ones greater potency.

`C[C@@H]1[C@H](O)[C@@H](C)/C=C/C=C/C=C/C=C/C=C/C=C/C=C/[C@H](O[C@@H]2O[C@H](C)[C@@H](O)[C@H](N)[C@@H]2O)C[C@@H]2O[C@](O)(C[C@@H](O)C[C@@H](O)[C@H](O)CC[C@@H](O)C[C@@H](O)CC(=O)O[C@H]1C)C[C@H](O)[C@H]2C(=O)O` [AMB, amphotericin B, reference compound]: it took 1 mg/L (≈ 1.08 µM) to inhibit growth with C. albicans (ATCC 10231) [1] (Candida albicans, ATCC10231) (MIC). The “cellular uptake of the PI dye” value with C. albicans (ATCC 10231) [2] is “increased the PI dye uptake”.

Turning to `Cc1ccc(NC(=O)Nc2nnc(SCC(O)(Cn3cncn3)c3ccc(F)cc3F)s2)cc1` (stereo not shown) [Compound 8e, 1-(5-((2-(2,4-Difluorophenyl)-2-hydroxy-3-(1H-1,2,4-triazol-1-yl)propyl)thio)-1,3,4-thiadiazol-2-yl)-3-(p-tolyl)urea], the MIC90 was 8 mg/L (≈ 15.9 µM) in [3] (setting [13]); 0.5 mg/L (≈ 0.993 µM) in the data set with C. krusei (ATCC 6258) (24 h); 1 μg·mL^–1 with C. krusei (ATCC 6258); 16 mg/L (≈ 31.8 µM) in data set [4]; 2 to 4 mg/L (≈ 3.97 to 7.94 µM) in data set [5] (setting [14]); 4 μg·mL^–1 in [5]. The MIC90 worked out at 8 mg/L (≈ 15.9 µM) with T. rubrum (PTCC 5143) (setting [15]); 0.5 mg/L (≈ 0.993 µM) in the data set on C. albicans (ATCC 10231) [1] (24 h, strain A); 1 μg·mL^–1 with C. albicans (ATCC 10231) [1] (strain A); 8 mg/L (≈ 15.9 µM) in [6]; 16 mg/L (≈ 31.8 µM) in the data set on Asp. niger (PTCC 5154); 8 mg/L (≈ 15.9 µM) in [7]. In addition, the MIC90 in data set [8] came out at 32 mg/L (≈ 63.5 µM); with Asp. terreus (PTCC 5023), 16 mg/L (≈ 31.8 µM); in data set [9], 16 mg/L (≈ 31.8 µM); in data set [10], 2 μg·mL^–1; against M. canis (PTCC 5069) it was 16 mg/L (≈ 31.8 µM). Moreover, the “fold greater potency than that of FLC” value in the data set on C. krusei (ATCC 6258) (from MIC values) was determined as 32 fold; with C. albicans (ATCC 10231) [1] (strain A, from MIC values) it was 32 fold.

Turning to `O=C(Nc1cccc(F)c1)Nc1nnc(SCC(O)(Cn2cncn2)c2ccc(F)cc2F)s1` (stereo not shown) [Compound 8g, 1-(5-((2-(2,4-Difluorophenyl)-2-hydroxy-3-(1H-1,2,4-triazol-1-yl)propyl)thio)-1,3,4-thiadiazol-2-yl)-3-(3-fluorophenyl)urea], the MIC90 is 2 to 4 mg/L (≈ 3.94 to 7.88 µM) in data set [3] (setting [13]); 4 μg·mL^–1 in [3]; 2 mg/L (≈ 3.94 µM) against C. krusei (ATCC 6258) (24 h); 16 mg/L (≈ 31.5 µM) in [4]; 8 mg/L (≈ 15.8 µM) in data set [5] (setting [14]); 1 to 16 mg/L (≈ 1.97 to 31.5 µM) with C. glabrata (ATCC 90030) (24 h). Also, the MIC90 was 1 μg·mL^–1 in the data set with C. glabrata (ATCC 90030); 4 mg/L (≈ 7.88 µM) against T. rubrum (PTCC 5143) (setting [15]); 2 mg/L (≈ 3.94 µM) in the data set on C. albicans (ATCC 10231) [1] (24 h, strain A); 8 mg/L (≈ 15.8 µM) in data set [6]; 16 mg/L (≈ 31.5 µM) with Asp. niger (PTCC 5154); 0.5 mg/L (≈ 0.985 µM) in [7]. Moreover, the MIC90 in data set [8] came out at 16 mg/L (≈ 31.5 µM); against Asp. terreus (PTCC 5023), 32 mg/L (≈ 63.1 µM); in data set [9] it was 16 mg/L (≈ 31.5 µM); in data set [10], 4 μg·mL^–1; against M. canis (PTCC 5069), 8 mg/L (≈ 15.8 µM).

Turning to `O=C(Nc1ccccc1)Nc1nnc(SCC(O)(Cn2cncn2)c2ccc(F)cc2F)s1` (stereo not shown) [Compound 8o, 1-(5-((2-(2,4-Difluorophenyl)-2-hydroxy-3-(1H-1,2,4-triazol-1-yl)propyl)thio)-1,3,4-thiadiazol-2-yl)-3-phenylurea], the MIC90 in data set [3] (setting [13]) is 8 mg/L (≈ 16.3 µM); against C. krusei (ATCC 6258) (24 h), 32 mg/L (≈ 65.4 µM); in data set [4] it was 16 mg/L (≈ 32.7 µM); in data set [5] (setting [14]), 2 to 4 mg/L (≈ 4.09 to 8.17 µM); in data set [5], 2 μg·mL^–1; in the data set with C. glabrata (ATCC 90030) (24 h), 32 mg/L (≈ 65.4 µM). Besides, the MIC90 is 2 to 4 mg/L (≈ 4.09 to 8.17 µM) with T. rubrum (PTCC 5143) (setting [15]); 4 μg·mL^–1 against T. rubrum (PTCC 5143); 16 mg/L (≈ 32.7 µM) in data set [6]; 32 mg/L (≈ 65.4 µM) with Asp. niger (PTCC 5154); 8 mg/L (≈ 16.3 µM) in data set [7]; 16 mg/L (≈ 32.7 µM) in data set [8]. In addition, the MIC90 against Asp. terreus (PTCC 5023) is 8 mg/L (≈ 16.3 µM); in data set [9], 32 mg/L (≈ 65.4 µM); in data set [10], 4 μg·mL^–1; in the data set with M. canis (PTCC 5069), 16 mg/L (≈ 32.7 µM).

Regarding `O=C(Nc1nnc(SCC(O)(Cn2cncn2)c2ccc(F)cc2F)s1)Nc1ccc(F)cc1F` (stereo not shown) [Compound 8p, 1-(2,4-Difluorophenyl)-3-(5-((2-(2,4-difluorophenyl)-2-hydroxy-3-(1H-1,2,4-triazol-1-yl)propyl)thio)-1,3,4-thiadiazol-2-yl)urea], the MIC90 in data set [3] (setting [13]) was 2 to 4 mg/L (≈ 3.81 to 7.61 µM); in data set [3] it was 4 μg·mL^–1; in data set [4], 32 mg/L (≈ 60.9 µM); in data set [5] (setting [14]), 8 mg/L (≈ 15.2 µM); against C. glabrata (ATCC 90030) (24 h), 32 mg/L (≈ 60.9 µM); against T. rubrum (PTCC 5143) (setting [15]), 16 mg/L (≈ 30.4 µM). For the same molecule, the MIC90 is 16 mg/L (≈ 30.4 µM) in data set [6]; 8 mg/L (≈ 15.2 µM) in data set [7]; 16 mg/L (≈ 30.4 µM) in data set [8]; 16 mg/L (≈ 30.4 µM) against Asp. terreus (PTCC 5023); 4 μg·mL^–1 in data set [10]; 16 mg/L (≈ 30.4 µM) in the data set with M. canis (PTCC 5069).

In the case of `Cc1ccc(NC(=O)Nc2nnc(SCC(O)(Cn3cncn3)c3ccc(F)cc3F)s2)cc1Cl` (stereo not shown) [Compound 8r, 1-(3-Chloro-4-methylphenyl)-3-(5-((2-(2,4-difluorophenyl)-2-hydroxy-3-(1H-1,2,4-triazol-1-yl)propyl)thio)-1,3,4-thiadiazol-2-yl)urea], the MIC90 in [3] (setting [13]) was 2 to 4 mg/L (≈ 3.72 to 7.43 µM); in [3], 4 μg·mL^–1; with C. krusei (ATCC 6258) (24 h), 32 mg/L (≈ 59.5 µM); in data set [4] it was 64 mg/L (≈ 119 µM); in data set [5] (setting [14]) it was 8 mg/L (≈ 14.9 µM); against C. glabrata (ATCC 90030) (24 h), 32 mg/L (≈ 59.5 µM). For the same molecule, the MIC90 is 2 to 4 mg/L (≈ 3.72 to 7.43 µM) with T. rubrum (PTCC 5143) (setting [15]); 4 μg·mL^–1 in the data set on T. rubrum (PTCC 5143); 64 mg/L (≈ 119 µM) in the data set with C. albicans (ATCC 10231) [1] (24 h, strain A); 32 mg/L (≈ 59.5 µM) in data set [6]; 32 mg/L (≈ 59.5 µM) in the data set with Asp. niger (PTCC 5154); 16 mg/L (≈ 29.7 µM) in data set [7]. Besides, the MIC90 was found to be 16 mg/L (≈ 29.7 µM) in data set [8]; 16 mg/L (≈ 29.7 µM) against Asp. terreus (PTCC 5023); 32 mg/L (≈ 59.5 µM) in [9]; 4 μg·mL^–1 in [10]; 32 mg/L (≈ 59.5 µM) in the data set with M. canis (PTCC 5069).

Take `C[C@@H](c1ncncc1F)[C@](O)(Cn1cncn1)c1ccc(F)cc1F` [VOR, voriconazole, reference compound]: the “kidney fungal burden, CFU/g (mean ± SD)” value with C. albicans (ATCC 10231) [11] was 318 CFU/g and 318 ± 66.5 ^b CFU/g.

As for Triton X-100 [reference compound], the hemolysis in data set [12] was 86.2%.
